Measurements: PubChem BioAssay AID1745844 (Carcinogenic Potency Database (CPDB), 2022)
Active and inactive are the calls of the source. How the calls were made is not given here.

System: rodent lifetime carcinogenesis bioassay, tumor incidence TD50
Experiment: carcinogenic potency in animals, long-term in vivo studies, CPDB compilation (AID 1745844)

Compound `Nc1ccc(Cl)cc1N` has a TD50 (mouse, strain B6C3F1, females, in feed, site: any site (literature study), lesion: several types, types named in the paper, dosed 78 weeks, study length 95 weeks) of 4090 mg/kg/day, a TD50 (mouse, strain B6C3F1, females, in feed, site: liver, lesion: hepatocellular adenoma + hepatocellular carcinoma + neoplastic nodule, dosed 78 weeks, study length 95 weeks) of 2240 mg/kg/day and a TD50 (mouse, strain B6C3F1, females, in feed, site: liver, lesion: hepatocellular adenoma + hepatocellular carcinoma, dosed 78 weeks, study length 95 weeks) of 2240 mg/kg/day. The TD50 (mouse, strain B6C3F1, females, in feed, site: liver, lesion: hepatocellular carcinoma, dosed 78 weeks, study length 95 weeks) was 5060 mg/kg/day, the TD50 (mouse, strain B6C3F1, males, in feed, site: any site (literature study), lesion: several types, types named in the paper, dosed 78 weeks, study length 95 weeks) was 905 mg/kg/day and the TD50 (mouse, strain B6C3F1, males, in feed, site: liver, lesion: hepatocellular adenoma + hepatocellular carcinoma + neoplastic nodule, dosed 78 weeks, study length 95 weeks) was 957 mg/kg/day. It also gave a TD50 (mouse, strain B6C3F1, males, in feed, site: liver, lesion: hepatocellular adenoma + hepatocellular carcinoma, dosed 78 weeks, study length 95 weeks) of 957 mg/kg/day, a TD50 (mouse, strain B6C3F1, males, in feed, site: liver, lesion: hepatocellular carcinoma, dosed 78 weeks, study length 95 weeks) of 1370 mg/kg/day and a TD50 (mouse, strain B6C3F1, males, in feed, site: lung, lesion: alveolar/bronchiolar adenoma + alveolar/bronchiolar carcinoma, dosed 78 weeks, study length 95 weeks) of 21300 mg/kg/day. The TD50 (rat, strain Fischer 344, females, in feed, site: any site (literature study), lesion: several types, types named in the paper, dosed 78 weeks, study length 105 weeks) was 351 mg/kg/day, the TD50 (rat, strain Fischer 344, females, in feed, site: liver, lesion: hepatocellular adenoma + hepatocellular carcinoma + neoplastic nodule, dosed 78 weeks, study length 105 weeks) was 6500 mg/kg/day and the TD50 (rat, strain Fischer 344, females, in feed, site: stomach + urinary bladder, lesion: squamous-cell papilloma + papillomatosis + papillary carcinoma + papilloma, NOS + transitional-cell carcinoma + transitional-cell, dosed 78 weeks, study length 105 weeks) was 212 mg/kg/day. For the same compound, the TD50 (rat, strain Fischer 344, females, in feed, site: stomach, lesion: squamous-cell papilloma, dosed 78 weeks, study length 105 weeks) was 5270 mg/kg/day, the TD50 (rat, strain Fischer 344, females, in feed, site: thyroid gland, lesion: follicular-cell adenoma + follicular-cell carcinoma, dosed 78 weeks, study length 105 weeks) was 2160 mg/kg/day and the TD50 (rat, strain Fischer 344, females, in feed, site: urinary bladder, lesion: papillary carcinoma + transitional-cell carcinoma, dosed 78 weeks, study length 105 weeks) was 429 mg/kg/day. For the same compound, the TD50 (rat, strain Fischer 344, females, in feed, site: urinary bladder, lesion: papillomatosis + papillary carcinoma + papilloma, NOS + transitional-cell carcinoma + transitional-cell papilloma, dosed 78 weeks, study length 105 weeks) was 212 mg/kg/day, the TD50 (rat, strain Fischer 344, males, in feed, site: any site (literature study), lesion: several types, types named in the paper, dosed 78 weeks, study length 105 weeks) was 362 mg/kg/day and the TD50 (rat, strain Fischer 344, males, in feed, site: liver, lesion: hepatocellular adenoma + hepatocellular carcinoma + neoplastic nodule, dosed 78 weeks, study length 105 weeks) was 1240 mg/kg/day. For the same compound, the TD50 (rat, strain Fischer 344, males, in feed, site: stomach + urinary bladder, lesion: squamous-cell carcinoma + squamous-cell papilloma + papilloma, NOS + transitional-cell carcinoma + transitional-cell papilloma, dosed 78 weeks, study length 105 weeks) was 197 mg/kg/day, the TD50 (rat, strain Fischer 344, males, in feed, site: stomach, lesion: squamous-cell carcinoma + squamous-cell papilloma, dosed 78 weeks, study length 105 weeks) was 2500 mg/kg/day and the TD50 (rat, strain Fischer 344, males, in feed, site: thyroid gland, lesion: follicular-cell adenoma + follicular-cell carcinoma, dosed 78 weeks, study length 105 weeks) was 3380 mg/kg/day. It also gave a TD50 (rat, strain Fischer 344, males, in feed, site: urinary bladder, lesion: papilloma, NOS + transitional-cell carcinoma + transitional-cell papilloma, dosed 78 weeks, study length 105 weeks) of 216 mg/kg/day, a TD50 (rat, strain Fischer 344, males, in feed, site: urinary bladder, lesion: squamous-cell carcinoma, dosed 78 weeks, study length 105 weeks) of 3780 mg/kg/day and a TD50 (rat, strain Fischer 344, males, in feed, site: urinary bladder, lesion: transitional-cell carcinoma, dosed 78 weeks, study length 105 weeks) of 363 mg/kg/day.

`OC[C@H]1OC(OC[C@H]2O[C@H](O)[C@H](O)[C@@H](O)[C@@H]2O)[C@H](O)[C@@H](O)[C@@H]1O` (some centres undefined) was tested, and the carcinogen call (mouse, strain Charles River CD1, females, in feed, site: liver, lesion: one or several types, types not named, dosed 80 weeks, study length 80 weeks) was “negative (inactive)” and the TD50 (mouse, strain Charles River CD1, males, in feed, site: liver, lesion: hepatocellular adenoma, dosed 80 weeks, study length 80 weeks) was 46300 mg/kg/day (inactive).

In the case of `CN1CCC[C@H]1c1cccnc1`, the carcinogen call (mouse, strain Swiss albino, females, in drinking water, site: liver, lesion: several types, types named in the paper, dosed 121 weeks, study length 123 weeks) is reported as “negative (inactive)”, the TD50 (mouse, strain Swiss albino, females, in drinking water, site: lung, lesion: one or several types, types not named, dosed 121 weeks, study length 123 weeks) is reported as 11100 mg/kg/day (inactive) and the carcinogen call (mouse, strain Swiss albino, males, in drinking water, site: liver, lesion: several types, types named in the paper, dosed 114 weeks, study length 120 weeks) is reported as “negative (inactive)”. The carcinogen call (mouse, strain Swiss albino, males, in drinking water, site: lung, lesion: one or several types, types not named, dosed 114 weeks, study length 120 weeks) was “negative (inactive)”, the carcinogen call (rat, strain Sprague-Dawley, females, i.p., site: any site (literature study), lesion: malignant tumor, dosed 104 weeks, study length 104 weeks) was “negative (inactive)” and the TD50 (rat, strain Sprague-Dawley, males, i.p., site: any site (literature study), lesion: malignant tumor, dosed 104 weeks, study length 104 weeks) was 6.38 mg/kg/day (inactive).

For `NCCCC(N)(C(=O)O)C(F)F` (centres undefined), the carcinogen call (rat, strain Wistar, males, in feed, site: stomach, glandular, lesion: one or several types, types not named, dosed 70 weeks, study length 70 weeks) was “negative (inactive)”.

`O=S(=O)(O)c1c(N=Nc2c(O)ccc3ccccc23)ccc2ccccc12` was tested, and the carcinogen call (rat, strain Osborne-Mendel, females, in feed, site: liver, lesion: adenoma, dosed 105 weeks, study length 105 weeks) was “negative (inactive)”, the TD50 (rat, strain Osborne-Mendel, females, in feed, site: pituitary gland, lesion: adenoma, dosed 105 weeks, study length 105 weeks) was 3560 mg/kg/day (inactive) and the carcinogen call (rat, strain Osborne-Mendel, males, in feed, site: liver, lesion: hepatocellular adenoma, dosed 105 weeks, study length 105 weeks) was “negative (inactive)”.

`CCCCNN` showed a TD50 (mouse, strain Swiss albino, females, in drinking water, site: lung, lesion: adenocarcinoma, dosed 119 weeks, study length 119 weeks) of 50.6 mg/kg/day, a TD50 (mouse, strain Swiss albino, females, in drinking water, site: lung, lesion: adenoma, dosed 119 weeks, study length 119 weeks) of 19.3 mg/kg/day and a TD50 (mouse, strain Swiss albino, females, in drinking water, site: lung, lesion: several types, types named in the paper, dosed 119 weeks, study length 119 weeks) of 18.4 mg/kg/day. The TD50 (mouse, strain Swiss albino, males, in drinking water, site: lung, lesion: adenoma, dosed 100 weeks, study length 100 weeks) was 8.4 mg/kg/day and the TD50 (mouse, strain Swiss albino, males, in drinking water, site: lung, lesion: several types, types named in the paper, dosed 100 weeks, study length 100 weeks) was 9.03 mg/kg/day.

`COC(N)=O` was tested, and the carcinogen call (mouse, strain B6C3F1, females, by gavage, site: any site (literature study), lesion: several types, types named in the paper, dosed 103 weeks, study length 104 weeks) was “negative (inactive)”, the TD50 (mouse, strain B6C3F1, females, by gavage, site: liver, lesion: hepatocellular adenoma + hepatocellular carcinoma + neoplastic nodule, dosed 103 weeks, study length 104 weeks) was 4700 mg/kg/day and the TD50 (mouse, strain B6C3F1, males, by gavage, site: any site (literature study), lesion: several types, types named in the paper, dosed 103 weeks, study length 104 weeks) was 5220 mg/kg/day (inactive). The TD50 (mouse, strain B6C3F1, males, by gavage, site: liver, lesion: hepatocellular adenoma + hepatocellular carcinoma + neoplastic nodule, dosed 103 weeks, study length 104 weeks) was 5080 mg/kg/day, the TD50 (rat, strain Fischer 344, females, by gavage, site: liver, lesion: hepatocellular adenoma + hepatocellular carcinoma + neoplastic nodule, dosed 103 weeks, study length 104 weeks) was 839 mg/kg/day and the TD50 (rat, strain Fischer 344, females, by gavage, site: liver, lesion: hepatocellular carcinoma + neoplastic nodule, dosed 103 weeks, study length 104 weeks) was 839 mg/kg/day. For the same compound, the TD50 (rat, strain Fischer 344, females, by gavage, site: liver, lesion: hepatocellular carcinoma, dosed 52 weeks, study length 52 weeks) was 53.4 mg/kg/day, the TD50 (rat, strain Fischer 344, females, by gavage, site: liver, lesion: hepatocellular carcinoma, dosed 78 weeks, study length 78 weeks) was 68.4 mg/kg/day and the TD50 (rat, strain Fischer 344, females, by gavage, site: liver, lesion: neoplastic nodule, dosed 52 weeks, study length 52 weeks) was 21.3 mg/kg/day. It also gave a TD50 (rat, strain Fischer 344, females, by gavage, site: liver, lesion: neoplastic nodule, dosed 78 weeks, study length 78 weeks) of 159 mg/kg/day, a TD50 (rat, strain Fischer 344, females, by gavage, site: liver, lesion: neoplastic nodule, dosed 103 weeks, study length 104 weeks) of 979 mg/kg/day and a TD50 (rat, strain Fischer 344, males, by gavage, site: liver, lesion: hepatocellular adenoma + hepatocellular carcinoma + neoplastic nodule, dosed 103 weeks, study length 104 weeks) of 2030 mg/kg/day. It also gave a TD50 (rat, strain Fischer 344, males, by gavage, site: liver, lesion: hepatocellular carcinoma + neoplastic nodule, dosed 103 weeks, study length 104 weeks) of 2030 mg/kg/day, a TD50 (rat, strain Fischer 344, males, by gavage, site: liver, lesion: hepatocellular carcinoma, dosed 52 weeks, study length 52 weeks) of 30.4 mg/kg/day and a TD50 (rat, strain Fischer 344, males, by gavage, site: liver, lesion: hepatocellular carcinoma, dosed 78 weeks, study length 78 weeks) of 47.8 mg/kg/day. It also gave a TD50 (rat, strain Fischer 344, males, by gavage, site: liver, lesion: neoplastic nodule, dosed 52 weeks, study length 52 weeks) of 40.7 mg/kg/day and a TD50 (rat, strain Fischer 344, males, by gavage, site: liver, lesion: neoplastic nodule, dosed 78 weeks, study length 78 weeks) of 494 mg/kg/day.

`O=NN1CCOC(O)C1` (centres undefined) was tested, and the TD50 (rat, strain Fischer 344, females, in drinking water, site: liver, lesion: hepatocellular carcinoma, dosed 50 weeks, study length 122 weeks) was 14.9 mg/kg/day (inactive).

With `COc1cccc(O)c1O` the TD50 (rat, strain F344/DuCrj, males, in feed, site: forestomach, lesion: squamous-cell papilloma, dosed 51 weeks, study length 51 weeks) was 425 mg/kg/day and the TD50 (rat, strain F344/DuCrj, males, in feed, site: stomach, glandular, lesion: adenoma, dosed 51 weeks, study length 51 weeks) was 48.7 mg/kg/day.

With `CC(C)[N+](=O)[O-]` the carcinogen call (rat, strain Sprague-Dawley, females, inhaled, site: any site (literature study), lesion: benign tumor, dosed 52 weeks, study length 52 weeks) was “negative (inactive)”, the carcinogen call (rat, strain Sprague-Dawley, females, inhaled, site: any site (literature study), lesion: benign tumor, dosed 52 weeks, study length 95 weeks) was “negative (inactive)” and the carcinogen call (rat, strain Sprague-Dawley, females, inhaled, site: any site (literature study), lesion: benign tumor, dosed 95 weeks, study length 95 weeks) was “negative (inactive)”. The carcinogen call (rat, strain Sprague-Dawley, females, inhaled, site: any site (literature study), lesion: malignant tumor, dosed 52 weeks, study length 52 weeks) was “negative (inactive)”, the carcinogen call (rat, strain Sprague-Dawley, females, inhaled, site: any site (literature study), lesion: malignant tumor, dosed 52 weeks, study length 95 weeks) was “negative (inactive)” and the carcinogen call (rat, strain Sprague-Dawley, females, inhaled, site: any site (literature study), lesion: malignant tumor, dosed 95 weeks, study length 95 weeks) was “negative (inactive)”. For the same compound, the carcinogen call (rat, strain Sprague-Dawley, females, inhaled, site: liver, lesion: one or several types, types not named, dosed 52 weeks, study length 52 weeks) was “negative (inactive)”, the carcinogen call (rat, strain Sprague-Dawley, females, inhaled, site: liver, lesion: one or several types, types not named, dosed 52 weeks, study length 95 weeks) was “negative (inactive)” and the TD50 (rat, strain Sprague-Dawley, females, inhaled, site: liver, lesion: one or several types, types not named, dosed 95 weeks, study length 95 weeks) was 293 mg/kg/day (inactive). The TD50 (rat, strain Sprague-Dawley, males, inhaled, site: any site (literature study), lesion: benign tumor, dosed 52 weeks, study length 52 weeks) was 9.06 mg/kg/day (inactive), the TD50 (rat, strain Sprague-Dawley, males, inhaled, site: any site (literature study), lesion: benign tumor, dosed 52 weeks, study length 95 weeks) was 7.78 mg/kg/day (inactive) and the carcinogen call (rat, strain Sprague-Dawley, males, inhaled, site: any site (literature study), lesion: benign tumor, dosed 95 weeks, study length 95 weeks) was “negative (inactive)”. For the same compound, the carcinogen call (rat, strain Sprague-Dawley, males, inhaled, site: any site (literature study), lesion: malignant tumor, dosed 52 weeks, study length 52 weeks) was “negative (inactive)”, the TD50 (rat, strain Sprague-Dawley, males, inhaled, site: any site (literature study), lesion: malignant tumor, dosed 52 weeks, study length 95 weeks) was 23.6 mg/kg/day (inactive) and the carcinogen call (rat, strain Sprague-Dawley, males, inhaled, site: any site (literature study), lesion: malignant tumor, dosed 95 weeks, study length 95 weeks) was “negative (inactive)”. The carcinogen call (rat, strain Sprague-Dawley, males, inhaled, site: liver, lesion: angioma, dosed 52 weeks, study length 95 weeks) was “negative (inactive)”, the carcinogen call (rat, strain Sprague-Dawley, males, inhaled, site: liver, lesion: angioma, dosed 95 weeks, study length 95 weeks) was “negative (inactive)” and the carcinogen call (rat, strain Sprague-Dawley, males, inhaled, site: liver, lesion: one or several types, types not named, dosed 52 weeks, study length 52 weeks) was “negative (inactive)”.
